Assay results taken from ChEMBL document CHEMBL5291721, “A preclinical secondary pharmacology resource illuminates target-adverse drug reaction associations of marketed drugs” (Nat Commun, 2023).

Legend:
[1] = target: Prostaglandin G/H synthase 1 (Homo sapiens, UniProt P23219); type: functional
Progesterone receptor = target: T1, Progesterone receptor (Homo sapiens, UniProt P06401)
T1 sequence (P06401 whole entry): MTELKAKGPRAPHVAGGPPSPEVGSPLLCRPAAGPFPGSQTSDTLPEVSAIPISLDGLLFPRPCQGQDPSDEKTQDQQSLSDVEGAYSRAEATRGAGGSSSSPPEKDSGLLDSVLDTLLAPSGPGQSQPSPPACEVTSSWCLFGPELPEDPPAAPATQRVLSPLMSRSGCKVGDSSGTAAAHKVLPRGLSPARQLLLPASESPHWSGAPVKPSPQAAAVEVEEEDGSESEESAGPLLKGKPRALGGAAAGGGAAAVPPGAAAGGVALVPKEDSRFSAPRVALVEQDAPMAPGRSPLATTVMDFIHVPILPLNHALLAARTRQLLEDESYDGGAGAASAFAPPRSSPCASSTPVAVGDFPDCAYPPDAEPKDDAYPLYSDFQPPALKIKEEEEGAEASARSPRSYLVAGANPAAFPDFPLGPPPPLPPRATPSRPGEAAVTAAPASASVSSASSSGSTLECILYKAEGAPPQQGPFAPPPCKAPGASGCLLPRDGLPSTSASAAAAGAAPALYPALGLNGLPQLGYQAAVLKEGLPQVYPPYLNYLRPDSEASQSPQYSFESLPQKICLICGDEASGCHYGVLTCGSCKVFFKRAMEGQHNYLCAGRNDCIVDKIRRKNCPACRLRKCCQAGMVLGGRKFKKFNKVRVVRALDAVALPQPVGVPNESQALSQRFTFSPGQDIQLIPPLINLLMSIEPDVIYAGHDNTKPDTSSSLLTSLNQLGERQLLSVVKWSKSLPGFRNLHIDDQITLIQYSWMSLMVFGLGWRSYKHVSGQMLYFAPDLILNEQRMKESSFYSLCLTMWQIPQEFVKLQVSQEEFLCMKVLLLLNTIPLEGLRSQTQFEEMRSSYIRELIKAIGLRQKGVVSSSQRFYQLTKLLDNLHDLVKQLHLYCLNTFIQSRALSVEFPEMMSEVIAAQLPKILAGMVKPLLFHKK

[2] = target: T2, 5-hydroxytryptamine receptor 2B (Homo sapiens, UniProt P41595); type: functional, cell-based
T2 sequence (P41595 whole entry): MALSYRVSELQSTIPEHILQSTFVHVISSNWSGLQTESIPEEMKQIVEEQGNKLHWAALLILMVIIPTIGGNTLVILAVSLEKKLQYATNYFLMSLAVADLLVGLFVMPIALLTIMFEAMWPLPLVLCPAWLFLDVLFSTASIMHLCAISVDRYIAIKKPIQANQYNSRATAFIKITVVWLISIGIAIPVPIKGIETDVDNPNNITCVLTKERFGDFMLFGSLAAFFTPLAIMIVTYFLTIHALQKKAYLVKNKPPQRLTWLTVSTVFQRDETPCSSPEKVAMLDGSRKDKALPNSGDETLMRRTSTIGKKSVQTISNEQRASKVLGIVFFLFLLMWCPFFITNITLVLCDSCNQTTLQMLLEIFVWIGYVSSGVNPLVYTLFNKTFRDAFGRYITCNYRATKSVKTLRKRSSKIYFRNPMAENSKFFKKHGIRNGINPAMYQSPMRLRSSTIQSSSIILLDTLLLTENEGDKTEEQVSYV

[3] = target: cGMP-inhibited 3',5'-cyclic phosphodiesterase 3A (Homo sapiens, UniProt Q14432); type: functional
Sequence of cGMP-inhibited 3',5'-cyclic phosphodiesterase 3A (Q14432 whole entry): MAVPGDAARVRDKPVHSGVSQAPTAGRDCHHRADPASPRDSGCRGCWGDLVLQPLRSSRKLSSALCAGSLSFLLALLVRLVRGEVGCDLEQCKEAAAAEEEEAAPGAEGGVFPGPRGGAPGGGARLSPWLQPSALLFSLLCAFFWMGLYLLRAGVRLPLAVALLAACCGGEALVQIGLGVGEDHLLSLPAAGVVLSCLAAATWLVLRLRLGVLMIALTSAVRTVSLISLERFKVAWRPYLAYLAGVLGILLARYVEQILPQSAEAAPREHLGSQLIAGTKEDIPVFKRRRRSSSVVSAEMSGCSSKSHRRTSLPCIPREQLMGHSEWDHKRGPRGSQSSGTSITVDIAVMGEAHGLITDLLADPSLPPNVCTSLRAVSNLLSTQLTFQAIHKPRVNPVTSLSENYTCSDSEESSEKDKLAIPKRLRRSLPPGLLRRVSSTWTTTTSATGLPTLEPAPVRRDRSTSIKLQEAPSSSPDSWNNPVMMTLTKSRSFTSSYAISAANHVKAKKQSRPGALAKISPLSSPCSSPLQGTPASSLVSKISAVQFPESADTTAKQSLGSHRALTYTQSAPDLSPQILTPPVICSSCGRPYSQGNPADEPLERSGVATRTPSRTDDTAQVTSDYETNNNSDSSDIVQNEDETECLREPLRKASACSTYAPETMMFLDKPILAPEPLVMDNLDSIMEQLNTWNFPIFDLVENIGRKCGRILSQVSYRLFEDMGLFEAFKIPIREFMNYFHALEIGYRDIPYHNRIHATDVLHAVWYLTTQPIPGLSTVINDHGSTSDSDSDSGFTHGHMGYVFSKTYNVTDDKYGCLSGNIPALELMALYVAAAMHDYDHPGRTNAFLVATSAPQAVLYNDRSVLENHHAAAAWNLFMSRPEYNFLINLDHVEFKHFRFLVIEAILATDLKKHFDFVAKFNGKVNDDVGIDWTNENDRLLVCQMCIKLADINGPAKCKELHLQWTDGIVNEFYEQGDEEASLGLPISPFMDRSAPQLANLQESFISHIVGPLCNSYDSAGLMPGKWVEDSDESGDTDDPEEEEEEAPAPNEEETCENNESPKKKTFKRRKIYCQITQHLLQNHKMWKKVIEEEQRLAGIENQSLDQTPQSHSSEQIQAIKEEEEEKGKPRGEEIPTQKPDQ

[4] = target: T3, 5-hydroxytryptamine receptor 1A (Homo sapiens, UniProt P08908)
T3 sequence (P08908 whole entry): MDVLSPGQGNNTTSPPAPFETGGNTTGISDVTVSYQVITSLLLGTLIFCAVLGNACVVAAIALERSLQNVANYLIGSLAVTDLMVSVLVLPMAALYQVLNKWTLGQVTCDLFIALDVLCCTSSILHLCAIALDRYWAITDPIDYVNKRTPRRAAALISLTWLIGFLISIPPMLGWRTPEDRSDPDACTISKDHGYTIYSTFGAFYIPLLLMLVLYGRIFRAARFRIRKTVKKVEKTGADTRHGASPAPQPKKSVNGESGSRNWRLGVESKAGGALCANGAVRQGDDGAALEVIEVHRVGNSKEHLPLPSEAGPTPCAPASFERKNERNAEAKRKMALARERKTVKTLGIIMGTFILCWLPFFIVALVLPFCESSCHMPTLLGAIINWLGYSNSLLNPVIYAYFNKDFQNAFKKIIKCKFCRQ

[5] = target: T4, Alpha-2A adrenergic receptor (Homo sapiens, UniProt P08913)
T4 sequence (P08913 whole entry): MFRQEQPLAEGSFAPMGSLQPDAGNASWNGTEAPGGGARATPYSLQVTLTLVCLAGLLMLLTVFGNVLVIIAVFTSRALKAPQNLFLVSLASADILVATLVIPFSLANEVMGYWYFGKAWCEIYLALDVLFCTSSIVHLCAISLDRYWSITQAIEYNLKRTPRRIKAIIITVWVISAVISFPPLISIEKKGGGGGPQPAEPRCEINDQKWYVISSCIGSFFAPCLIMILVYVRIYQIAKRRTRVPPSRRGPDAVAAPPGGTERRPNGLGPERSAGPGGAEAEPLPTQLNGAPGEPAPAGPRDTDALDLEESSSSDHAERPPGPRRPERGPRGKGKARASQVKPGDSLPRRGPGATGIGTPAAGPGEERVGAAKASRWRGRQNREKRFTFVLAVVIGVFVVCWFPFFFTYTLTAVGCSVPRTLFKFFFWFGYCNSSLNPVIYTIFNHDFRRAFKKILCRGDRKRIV

[6] = target: T2, 5-hydroxytryptamine receptor 2B; type: functional, cell-based; remark: listed apart in the source
[7] = target: T4, Alpha-2A adrenergic receptor; type: functional, cell-based
[8] = target: Voltage-dependent L-type calcium channel subunit alpha-1C (Rattus norvegicus, UniProt P22002); type: functional
Sequence of Voltage-dependent L-type calcium channel subunit alpha-1C (P22002 whole entry): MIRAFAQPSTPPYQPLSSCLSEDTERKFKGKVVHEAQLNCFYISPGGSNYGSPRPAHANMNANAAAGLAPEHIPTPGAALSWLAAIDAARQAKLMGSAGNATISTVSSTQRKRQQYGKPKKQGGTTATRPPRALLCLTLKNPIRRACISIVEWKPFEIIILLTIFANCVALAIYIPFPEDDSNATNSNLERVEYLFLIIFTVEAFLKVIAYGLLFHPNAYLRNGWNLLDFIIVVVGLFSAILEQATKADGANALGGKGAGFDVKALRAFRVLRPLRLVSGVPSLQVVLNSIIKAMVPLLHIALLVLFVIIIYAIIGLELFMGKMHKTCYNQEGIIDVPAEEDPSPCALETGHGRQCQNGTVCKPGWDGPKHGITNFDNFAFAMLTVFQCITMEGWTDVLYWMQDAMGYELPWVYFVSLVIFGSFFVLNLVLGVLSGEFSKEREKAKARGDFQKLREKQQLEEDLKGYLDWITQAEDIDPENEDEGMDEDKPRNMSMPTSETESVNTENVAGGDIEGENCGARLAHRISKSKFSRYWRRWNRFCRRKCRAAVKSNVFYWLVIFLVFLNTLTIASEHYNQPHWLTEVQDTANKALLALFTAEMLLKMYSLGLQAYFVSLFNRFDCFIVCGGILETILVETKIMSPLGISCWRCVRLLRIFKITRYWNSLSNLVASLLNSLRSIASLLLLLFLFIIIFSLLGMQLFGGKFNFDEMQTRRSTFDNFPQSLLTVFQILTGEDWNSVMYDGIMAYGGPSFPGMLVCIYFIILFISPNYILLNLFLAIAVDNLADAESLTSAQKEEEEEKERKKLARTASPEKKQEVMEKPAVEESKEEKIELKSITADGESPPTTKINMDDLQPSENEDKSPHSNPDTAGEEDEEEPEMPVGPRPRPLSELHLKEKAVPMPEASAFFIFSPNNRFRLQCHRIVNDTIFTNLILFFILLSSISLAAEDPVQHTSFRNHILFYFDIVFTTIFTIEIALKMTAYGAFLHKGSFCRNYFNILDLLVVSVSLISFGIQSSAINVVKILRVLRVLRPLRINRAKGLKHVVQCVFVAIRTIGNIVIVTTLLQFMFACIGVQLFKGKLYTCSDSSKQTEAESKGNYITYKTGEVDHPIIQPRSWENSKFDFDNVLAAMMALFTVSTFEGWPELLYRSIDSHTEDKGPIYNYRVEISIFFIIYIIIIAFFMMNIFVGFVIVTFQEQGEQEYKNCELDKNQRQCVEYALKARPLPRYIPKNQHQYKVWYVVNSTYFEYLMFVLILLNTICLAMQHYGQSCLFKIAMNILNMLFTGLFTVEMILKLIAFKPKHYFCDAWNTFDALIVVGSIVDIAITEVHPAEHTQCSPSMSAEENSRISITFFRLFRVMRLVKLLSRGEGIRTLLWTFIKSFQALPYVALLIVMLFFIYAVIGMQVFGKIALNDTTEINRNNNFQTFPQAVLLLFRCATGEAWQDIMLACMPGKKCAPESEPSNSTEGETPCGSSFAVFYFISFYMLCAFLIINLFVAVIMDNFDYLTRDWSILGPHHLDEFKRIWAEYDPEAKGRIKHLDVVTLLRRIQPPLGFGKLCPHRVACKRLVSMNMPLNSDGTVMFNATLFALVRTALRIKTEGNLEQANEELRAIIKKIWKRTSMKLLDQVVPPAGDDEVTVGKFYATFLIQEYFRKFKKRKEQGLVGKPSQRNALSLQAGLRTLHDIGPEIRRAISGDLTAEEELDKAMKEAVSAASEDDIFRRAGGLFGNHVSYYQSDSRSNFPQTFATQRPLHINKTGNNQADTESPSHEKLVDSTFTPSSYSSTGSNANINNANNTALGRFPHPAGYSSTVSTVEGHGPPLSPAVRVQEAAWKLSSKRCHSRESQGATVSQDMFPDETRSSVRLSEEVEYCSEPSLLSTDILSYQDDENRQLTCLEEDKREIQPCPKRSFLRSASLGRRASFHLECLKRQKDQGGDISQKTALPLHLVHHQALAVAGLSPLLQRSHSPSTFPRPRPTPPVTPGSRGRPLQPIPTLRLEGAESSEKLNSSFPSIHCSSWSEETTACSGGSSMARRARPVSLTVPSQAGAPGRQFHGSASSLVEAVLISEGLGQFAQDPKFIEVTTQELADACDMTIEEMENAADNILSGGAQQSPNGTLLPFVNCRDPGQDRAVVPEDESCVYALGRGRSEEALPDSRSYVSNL

[9] = target: Neuronal acetylcholine receptor subunit alpha-4 (Homo sapiens, UniProt P43681)
Sequence of Neuronal acetylcholine receptor subunit alpha-4 (P43681 whole entry): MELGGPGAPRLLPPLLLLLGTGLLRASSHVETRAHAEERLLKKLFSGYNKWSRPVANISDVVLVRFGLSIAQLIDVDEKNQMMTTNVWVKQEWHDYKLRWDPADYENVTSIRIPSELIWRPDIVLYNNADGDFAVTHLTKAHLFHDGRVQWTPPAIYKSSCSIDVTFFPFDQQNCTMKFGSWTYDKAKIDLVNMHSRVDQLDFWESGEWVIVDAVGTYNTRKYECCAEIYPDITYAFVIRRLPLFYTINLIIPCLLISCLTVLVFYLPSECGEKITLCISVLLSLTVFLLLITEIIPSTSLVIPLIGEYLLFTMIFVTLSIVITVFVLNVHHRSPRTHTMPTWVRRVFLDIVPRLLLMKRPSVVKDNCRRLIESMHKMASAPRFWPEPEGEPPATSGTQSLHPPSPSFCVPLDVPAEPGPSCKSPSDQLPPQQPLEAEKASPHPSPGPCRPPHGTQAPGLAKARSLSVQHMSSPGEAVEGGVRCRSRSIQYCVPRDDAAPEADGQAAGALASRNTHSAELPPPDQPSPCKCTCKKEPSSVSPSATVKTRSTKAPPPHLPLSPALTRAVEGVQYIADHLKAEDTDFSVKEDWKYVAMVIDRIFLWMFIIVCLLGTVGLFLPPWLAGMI

[10] = target: Glutamate receptor ionotropic, NMDA 1 (Rattus norvegicus, UniProt P35439)
Histamine H3 receptor = Histamine H3 receptor (Homo sapiens, UniProt Q9Y5N1)
Sequence of Histamine H3 receptor (Q9Y5N1 whole entry): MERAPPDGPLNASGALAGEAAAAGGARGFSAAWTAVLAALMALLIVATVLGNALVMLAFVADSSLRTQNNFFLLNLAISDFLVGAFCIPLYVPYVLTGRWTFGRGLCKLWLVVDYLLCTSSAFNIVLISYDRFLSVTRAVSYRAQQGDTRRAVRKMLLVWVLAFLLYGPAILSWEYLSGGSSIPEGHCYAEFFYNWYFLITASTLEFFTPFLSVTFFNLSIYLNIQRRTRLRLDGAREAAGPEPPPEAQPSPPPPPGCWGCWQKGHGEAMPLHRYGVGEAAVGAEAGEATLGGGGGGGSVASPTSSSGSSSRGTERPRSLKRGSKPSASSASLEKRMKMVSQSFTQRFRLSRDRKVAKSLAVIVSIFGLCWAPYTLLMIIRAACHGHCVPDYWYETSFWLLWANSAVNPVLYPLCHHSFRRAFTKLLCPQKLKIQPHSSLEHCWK

[11] = target: T2, 5-hydroxytryptamine receptor 2B; type: functional, cell-based; remark: listed apart in the source
[12] = target: T5, Amine oxidase [flavin-containing] A (Homo sapiens, UniProt P21397); type: functional
T5 sequence (P21397 whole entry): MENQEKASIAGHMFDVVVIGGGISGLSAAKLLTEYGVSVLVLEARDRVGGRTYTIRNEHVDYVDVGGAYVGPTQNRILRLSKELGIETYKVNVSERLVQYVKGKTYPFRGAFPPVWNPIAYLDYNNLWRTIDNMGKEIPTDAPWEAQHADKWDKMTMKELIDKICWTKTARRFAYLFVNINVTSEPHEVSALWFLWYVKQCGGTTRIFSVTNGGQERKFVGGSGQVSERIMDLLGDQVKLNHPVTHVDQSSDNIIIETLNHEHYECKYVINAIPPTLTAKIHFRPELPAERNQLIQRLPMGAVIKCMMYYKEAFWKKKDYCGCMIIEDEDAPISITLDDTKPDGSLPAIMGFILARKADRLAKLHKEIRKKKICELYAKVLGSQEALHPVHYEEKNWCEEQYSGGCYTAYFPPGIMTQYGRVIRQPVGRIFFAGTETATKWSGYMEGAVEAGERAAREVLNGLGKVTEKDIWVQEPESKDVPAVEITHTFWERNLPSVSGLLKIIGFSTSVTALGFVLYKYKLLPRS

Measured: AC50
Also: assay procedure not described here.

CN(C)C(=O)Oc1cccc([N+](C)(C)C)c1 [NEOSTIGMINE]
> 30 µM: [1] | Progesterone receptor | [2] | [3] | [4] | [5]

CCN(CC)C(=O)C1(c2ccccc2)CC1CN (centres undefined)
> 30 µM: [6] | [7] | [8] | [9] | [10] | Histamine H3 receptor | [11] | [12]
